PubChem BioAssay (NCI)
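Each compound was tested at five concentrations against cells in 96-well plates for 48 hours. Abbreviation: GI50, concentration required for 50% inhibition of growth. TGI: concentration producing complete growth inhibition.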

Assays:
Assay in all cases: DTP human tumour cell line panel, 48 h
SK-OV-3 ovarian = test system: SK-OV-3 ovarian
UACC-62 melanoma = test system: UACC-62 melanoma
NCI-H460 lung = test system: NCI-H460 lung
SK-MEL-5 melanoma = test system: SK-MEL-5 melanoma
MDA-MB-435 = test system: MDA-MB-435
IGROV1 ovarian = test system: IGROV1 ovarian
EKVX NSCLC = test system: EKVX NSCLC
UO-31 renal = test system: UO-31 renal
OVCAR-4 ovarian = test system: OVCAR-4 ovarian
HT29 colon = test system: HT29 colon

SMILES	TGI (SK-OV-3 ovarian)	TGI (UACC-62 melanoma)	TGI (NCI-H460 lung)	TGI (SK-MEL-5 melanoma)	TGI (MDA-MB-435)	TGI (IGROV1 ovarian)	TGI (EKVX NSCLC)	TGI (UO-31 renal)	TGI (OVCAR-4 ovarian)	TGI (HT29 colon)	GI50 (OVCAR-4 ovarian)	GI50 (SK-OV-3 ovarian)	GI50 (NCI-H460 lung)	GI50 (SK-MEL-5 melanoma)	GI50 (MDA-MB-435)	GI50 (HT29 colon)	GI50 (IGROV1 ovarian)	GI50 (EKVX NSCLC)	GI50 (UO-31 renal)
O=C(O)c1cccc(NC(C(=O)c2ccccc2)c2ccccc2)c1 (stereo not given)	> 100 µM	> 100 µM	> 100 µM	> 100 µM	> 100 µM	> 100 µM	> 100 µM	> 100 µM											
O=C(N=Nc1ccccc1Cl)NNc1ccccc1Cl		> 100 µM	> 100 µM	> 100 µM	> 100 µM	43.2 µM		> 100 µM	58.5 µM	> 100 µM									
Clc1cc(Cl)ncn1	> 100 µM	> 100 µM	> 100 µM	> 100 µM	> 100 µM	> 100 µM		> 100 µM	> 100 µM	> 100 µM									
Cc1nc(Nc2ccccc2Cl)sc1C(=O)CC(=O)C(N)=O	> 100 µM	> 100 µM	> 100 µM		> 100 µM	> 100 µM	> 100 µM	> 100 µM	> 100 µM	> 100 µM									
C#CCOC(=O)c1ccc(OC(C)=O)cc1	> 100 µM	> 100 µM	> 100 µM	> 100 µM	> 100 µM	> 100 µM	> 100 µM	> 100 µM	> 100 µM										
COc1ccccc1C1C(C#N)=C(N)Oc2n[nH]c(C)c21 (stereo not given)	> 100 µM		> 100 µM	> 100 µM	> 100 µM	95.7 µM	> 100 µM	> 100 µM	> 100 µM	> 100 µM	> 100 µM	> 100 µM	> 100 µM	59 µM	75.1 µM	> 100 µM	37.7 µM	> 100 µM	> 100 µM
CCC(=O)OC1CCn2c1nc1c2C(=O)C(C)=C(NC(C)=O)C1=N (stereo not given)	6.82 µM	2.71 µM	3 µM	2.55 µM		5.54 µM	5.48 µM	4.64 µM	2.66 µM	3.36 µM									
Cc1c2ccncc2c(C)c2c1[nH]c1ccc(OCCN(C)C)cc12	1.84 µM	2.35 µM	0.0921 µM	3.4 µM		1.42 µM	1.51 µM	1.75 µM	0.368 µM	1.24 µM									
COc1cc(N(CCC#N)CCC#N)ccc1/C=N\NC(=O)c1ccc(C)cc1	> 100 µM	> 100 µM	> 100 µM	> 100 µM	> 100 µM	> 100 µM	> 100 µM		> 100 µM	> 100 µM									
[N-]=[N+]=NCC(O)Cn1cnc2c(NC(=O)c3ccccc3)ncnc21 (stereo not given)		> 100 µM	> 100 µM	> 100 µM		> 100 µM	> 100 µM	> 100 µM	> 100 µM	> 100 µM									
O=c1[nH]c(=O)n(C2OC(CO)C(O)C2O)cc1OCCCc1ccccc1 (stereo not given)	> 100 µM	> 100 µM	> 100 µM	> 100 µM	> 100 µM	> 100 µM	> 100 µM		> 100 µM	> 100 µM									
Oc1ccc(-c2nc3ccccc3s2)cc1	86 µM	> 100 µM	> 100 µM		> 100 µM	> 100 µM	> 100 µM	> 100 µM	> 100 µM	> 100 µM									
CCOc1cc2c(cc1O)C(O)C[C@@H]1[C@@H]2CC[C@]2(C)[C@@H](O)CC[C@@H]12 (stereo not given in full)	> 100 µM	> 100 µM			> 100 µM	> 100 µM	> 100 µM	> 100 µM	> 100 µM	25.1 µM									
CC1(C)O[C@@H](C[C@]2(C#N)C[C@H](CCl)OC(C)(C)O2)C[C@@H](C#N)O1	> 100 µM	> 100 µM	> 100 µM	> 100 µM		> 100 µM	> 100 µM	> 100 µM	> 100 µM	> 100 µM									
OC(NN=C1CCCC1)(C(F)(F)Cl)C(F)(F)Cl	> 10 µM	> 10 µM	> 10 µM	> 10 µM	> 10 µM	> 10 µM	> 10 µM		> 10 µM	> 10 µM									
O=C1NC(N2CCOCC2)=N/C1=C\c1ccc(O)cc1	> 100 µM	> 100 µM			> 100 µM	> 100 µM	> 100 µM	> 100 µM	> 100 µM	> 100 µM									
CCCCCCCCC#CCCCCCCCCCC[C@@H]1C(=O)O[C@H](C)[C@@H]1O (tested in a mixture with another compound)	> 100 µM		35.8 µM	26.8 µM		32.7 µM	54.9 µM	35.3 µM	54.9 µM										
O=C1C2C=CC(n3[nH]c(=O)n(Cc4ccccc4)c3=O)CC2C(=O)N1c1ccc(Br)cc1 (stereo not given)	> 100 µM	> 100 µM	> 100 µM	> 100 µM		> 100 µM	> 100 µM	> 100 µM	> 100 µM	> 100 µM									
Cc1ccc(S(=O)(=O)NC(=O)C2=C3SCCN3C(=O)N(S(=O)(=O)c3ccc(C)cc3)C2c2ccccc2)cc1 (stereo not given)	66.8 µM	> 100 µM	> 100 µM		61 µM	> 100 µM	> 100 µM	> 100 µM	> 100 µM	> 100 µM									
CCOC(=O)C1=C(O)c2ccc(C)cc2C(=O)C1=O	> 100 µM	> 100 µM	> 100 µM	> 100 µM		> 100 µM	> 100 µM	> 100 µM	> 100 µM	> 100 µM									
CC(=O)C(C)(C)CCC(C)(C)C(C)=O	> 100 µM	> 100 µM	> 100 µM	> 100 µM		> 100 µM	> 100 µM	> 100 µM	> 100 µM	> 100 µM									
Clc1ccc(C2=CCN3CC=C(c4ccc(Cl)cc4)C23)cc1		21.2 µM	22.4 µM	13.5 µM	22.9 µM	21.9 µM	31.6 µM	20 µM	26.1 µM	17.8 µM									
C=C1C(C)C2C(Cc3ccccc3)NC(=O)C23OC(=O)/C=C\CC(=O)CCC(C)C/C=C/C3C1O (stereo not given)	19 µM	11.2 µM	21.7 µM	16.3 µM		10.6 µM	10.1 µM	2.72 µM	7.39 µM	11.1 µM									0.913 µM
